Measurements as given in patent publication US8084596B2, “Regulated apoptosis” (The Board of Trustees of the Leland Stanford Junior …, priority 1993, dated 2011).

Target: T1, myristoylated Fas-FKBP12 fusion protein (MFF3E) (Homo sapiens, UniProt P25445)
T1 construct: expressed in transfected cells; host or cells: Jurkat T cells stably transformed with large T-antigen, transient transfection
Format: cell-based

T1 sequence (P25445 with tags, fused parts or gaps): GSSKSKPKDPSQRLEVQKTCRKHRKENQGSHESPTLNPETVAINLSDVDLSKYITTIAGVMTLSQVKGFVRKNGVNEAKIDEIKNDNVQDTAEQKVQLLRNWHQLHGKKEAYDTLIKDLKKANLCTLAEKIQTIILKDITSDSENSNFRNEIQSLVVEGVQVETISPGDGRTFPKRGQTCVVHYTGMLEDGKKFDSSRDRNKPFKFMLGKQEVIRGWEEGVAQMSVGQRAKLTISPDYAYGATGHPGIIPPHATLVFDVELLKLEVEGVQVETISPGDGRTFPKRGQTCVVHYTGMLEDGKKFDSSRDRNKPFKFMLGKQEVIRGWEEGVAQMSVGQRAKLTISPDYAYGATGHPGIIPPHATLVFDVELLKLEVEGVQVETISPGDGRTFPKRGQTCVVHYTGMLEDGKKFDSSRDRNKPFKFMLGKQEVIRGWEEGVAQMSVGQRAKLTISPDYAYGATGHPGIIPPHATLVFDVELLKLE

## FK1012-A (p-xylylenediamine bridge) [FK1012A]
  LD50 for mediated death of cells: 15 nM
